Tested on: colonic propulsive motility in mice
Test: Glass bead test of colonic propulsive motility in mice
Details: for Expulsion Time (min.) Mean ± SEM: 3 mm glass bead inserted 30 min after dosing, female Swiss Webster mice

| SMILES | Expulsion Time (min.) Mean ± SEM (10 mg/kg PO) | inhibition at 10 mg/kg (Mus musculus, po) | Expulsion Time (min.) Mean ± SEM (30 mg/kg PO) | effect compared with 10 mg/kg dose of loperamide (30 mg/kg tianeptine PO) | Expulsion Time (min.) Mean ± SEM (60 mg/kg PO) | effect on colonic propulsion (in words) (10, 30 and 60 mg/kg PO) | inhibition at 30 mg/kg (Mus musculus, po) | inhibition at 60 mg/kg (Mus musculus, po) |
| --- | --- | --- | --- | --- | --- | --- | --- | --- |
| CN(C)C(=O)C(CCN1CCC(O)(c2ccc(Cl)cc2)CC1)(c1ccccc1)c1ccccc1 [loperamide] | 26.0 ± 2.6 min | 81% |  |  |  |  |  |  |
| CN1c2ccccc2C(NCCCCCCC(=O)O)c2ccc(Cl)cc2S1(=O)=O (stereo not shown) [tianeptine, 7-[(3-chloro-6,11-dihydro-6-methyl-dibenzo[c,f][1,2]thiazepin-11-yl)amino] heptanoic acid S,S-dioxide] | 16.6 ± 3.6 min | 38% | 25.7 ± 2.3 min | equivalent in effect to a 10 mg/kg dose of loperamide | 29.8 ± 0.2 min | dose-related inhibition of colonic propulsion | 80% | 98% |
